Test results published in BindingDB's records for doi:10.1021/acs.jmedchem.9b01567 (Peking Union Medical College, 2020).

Tests used:
[1] = target: T1, Interferon regulatory factor 3 (Homo sapiens, UniProt Q14653); assay: Induction of IRF3 pathway in STING knockout human THP1 cells measured after 20 hrs by luciferase reporter gene assay
T1 sequence (Q14653 whole entry): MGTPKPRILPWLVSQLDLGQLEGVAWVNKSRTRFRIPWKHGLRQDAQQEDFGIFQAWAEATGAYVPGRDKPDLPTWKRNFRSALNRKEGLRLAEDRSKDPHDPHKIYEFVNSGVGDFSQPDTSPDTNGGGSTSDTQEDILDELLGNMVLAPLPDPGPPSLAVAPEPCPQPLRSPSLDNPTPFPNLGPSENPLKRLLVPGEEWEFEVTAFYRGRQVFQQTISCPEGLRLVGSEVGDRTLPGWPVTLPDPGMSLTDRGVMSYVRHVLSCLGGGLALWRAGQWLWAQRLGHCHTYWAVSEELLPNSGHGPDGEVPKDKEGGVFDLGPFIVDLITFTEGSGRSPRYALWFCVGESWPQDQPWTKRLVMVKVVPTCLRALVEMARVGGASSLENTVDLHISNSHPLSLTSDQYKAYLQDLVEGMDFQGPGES

[2] = Agonist activity at STING in human THP1 cells assessed as stimulation of IRF3 pathway measured after 20 hrs by luciferase reporter gene assay

| Compound | EC50 [1] [µM] | EC50 [2] [µM] |
| --- | --- | --- |
| CCn1nc(C)cc1C(=O)Nc1nc2cc(C(N)=O)cnc2n1CCCNC(=O)OC(C)(C)C | > 100 | > 100 |
| CCn1nc(C)cc1C(=O)Nc1nc2cc(C(N)=O)ccc2n1CCCNC(=O)OCc1ccccc1 | > 100 | > 100 |
| COc1cc(C(N)=O)cc2nc(NC(=O)c3ccccn3)n(CCCCNC(=O)OC(C)(C)C)c12 | > 100 | – |
| COc1cc(C(N)=O)cc2nc(NC(=O)C3CCCN3C)n(CCCNC(=O)OCc3ccccc3)c12 (centres undefined) | > 100 | > 100 |
| CCn1nc(C)cc1C(=O)Nc1nc2cccc(OC)c2n1CCCNC(=O)OCc1ccccc1 | > 100 | > 100 |
| CCCn1c(NC(=O)c2ccc3ccccc3n2)nc2cc(C(N)=O)cc(OC)c21 | > 100 | > 100 |
| CCn1nc(C)cc1C(=O)Nc1nc2cc(C(N)=O)cc(OC)c2n1CCCNC(=O)OC(C)(C)C | > 100 | – |
| CCn1nc(C)cc1C(=O)Nc1nc2cc(C(N)=O)cc(OC)c2n1CCCNC(=O)OCc1ccccc1 | > 100 | 0.872 |
| CCn1nccc1C(=O)Nc1nc2cc(C(N)=O)cc(OC)c2n1CCCNC(=O)OCc1ccccc1 | > 100 | > 100 |
| COc1cc(C(N)=O)cc2nc(NC(=O)c3ccnn3C)n(CCCNC(=O)OCc3ccccc3)c12 | > 100 | > 100 |
| CCCn1c(NC(=O)c2cc(C)nn2CC)nc2cc(C(=O)OC)cc(OC)c21 | > 100 | > 100 |
| CCCn1c(NC(=O)c2cncn2C)nc2cc(C(N)=O)cc(OC)c21 | > 100 | > 100 |
| CCCn1c(NC(=O)c2ccnn2CC)nc2cc(C(N)=O)cc(OC)c21 | > 100 | > 100 |
| CCn1nc(C)cc1C(=O)Nc1nc2cc(C(=O)O)cnc2n1CCCNC(=O)OC(C)(C)C | > 100 | > 100 |
| NC(=O)c1cc(OCCCN2CCOCC2)c2c(c1)nc(NC(=O)c1cccnn1)n2CCCNC(=O)OCc1ccccc1 | > 100 | > 100 |
| COCCCOc1cc(C(N)=O)cc2nc(NC(=O)c3cccnn3)n(CCCNC(=O)OCc3ccccc3)c12 | > 100 | > 100 |
| COc1cc(C(N)=O)cc2nc(NC(=O)c3cccnn3)n(CCCCNC(=O)OC(C)(C)C)c12 | > 100 | – |
| CCn1nc(C)cc1C(=O)Nc1nc2cc(C(N)=O)cc(OC)c2n1CCCNC(=O)CCc1cc(OC)c(OC)c(OC)c1 | > 100 | > 100 |
| COc1cc(C(N)=O)cc2nc(NC(=O)c3cncn3C)n(CCCNC(=O)OCc3ccccc3)c12 | > 100 | > 100 |
| COc1cc(C(N)=O)cc2nc(NC(=O)c3cccn3C)n(CCCNC(=O)OCc3ccccc3)c12 | > 100 | > 100 |
| COc1cc(C(N)=O)cc2nc(NC(=O)C3CCN(C)CC3)n(CCCNC(=O)OCc3ccccc3)c12 | > 100 | > 100 |
| CCn1nc(C)cc1C(=O)Nc1nc2cc(C(N)=O)cc(OCCCN3CCOCC3)c2n1CCCNC(=O)OCc1ccccc1 | > 100 | – |
| CCCn1c(NC(=O)c2ccnn2C)nc2cc(C(N)=O)cc(OC)c21 | > 100 | > 100 |

Now from value to compound:

| EC50 [1] [µM] | EC50 [2] [µM] | Compound |
| --- | --- | --- |
| > 100 | > 100 | CCn1nc(C)cc1C(=O)Nc1nc2cc(C(N)=O)cc(OC)c2n1CCCN |
| > 100 | > 100 | CCCn1c(NC(=O)CCc2ccccc2)nc2cc(C(N)=O)cc(OC)c21 |
| > 100 | > 100 | CCn1nc(C)cc1C(=O)Nc1nc2cc(C(=O)OC)cnc2n1CCCNC(=O)OC(C)(C)C |
| > 100 | > 100 | CCCn1c(NC(=O)c2nccc3ccccc23)nc2cc(C(N)=O)cc(OC)c21 |
| > 100 | – | COc1cc(C(N)=O)cc2nc(NC(=O)c3cccnn3)n(CCCNC(=O)OCc3ccccc3)c12 |
| > 100 | – | COc1cc(C(N)=O)cc2nc(NC(=O)c3ccccn3)n(CCCNC(=O)OCc3ccccc3)c12 |
| > 100 | > 100 | COc1cc(C(N)=O)cc2nc(NC(=O)c3ccc4ccccc4n3)n(CCCNC(=O)OCc3ccccc3)c12 |
| 27.6 | 20.7 | CCn1nc(C)cc1C(=O)Nc1nc2cc(C(=O)OC)cc(OC)c2n1CCCNC(=O)OCc1ccccc1 |
| > 100 | > 100 | CCCn1c(NC(=O)c2cc3ccccc3n2C)nc2cc(C(N)=O)cc(OC)c21 |
| > 100 | > 100 | CCCn1c(NC(=O)c2ccccn2)nc2cc(C(N)=O)cc(OC)c21 |
| > 100 | > 100 | CCCn1c(NC(=O)c2cc(C)nn2CC)nc2cccc(OC)c21 |
| > 100 | – | CCCn1c(NC(=O)c2cc(C)nn2CC)nc2cc(C(N)=O)ccc21 |
| > 100 | > 100 | NC(=O)c1cc(OCCCN2CCOCC2)c2c(c1)nc(NC(=O)c1ccccn1)n2CCCNC(=O)OCc1ccccc1 |
| > 100 | – | COCCCOc1cc(C(N)=O)cc2nc(NC(=O)c3ccccn3)n(CCCNC(=O)OCc3ccccc3)c12 |
| > 100 | > 100 | COc1cc(C(N)=O)cc2nc(NC(=O)CCc3ccccc3)n(CCCNC(=O)OCc3ccccc3)c12 |
| > 100 | 27.5 | CCn1nc(C)cc1C(=O)Nc1nc2cc(C(N)=O)cc(OC)c2n1CCCNC(=O)C(C)(C)C |
| > 100 | 39.5 | CCn1nc(C)cc1C(=O)Nc1nc2cc(C(N)=O)cc(OC)c2n1CCCNC(=O)CCc1cccnc1 |
| > 100 | > 100 | CCn1nc(C)cc1C(=O)Nc1nc2cc(C(N)=O)cc(OC)c2n1CCCNC(=O)CCC(=O)O |
| > 100 | > 100 | CCn1nc(C)cc1C(=O)Nc1nc2cc(C(N)=O)cc(OC)c2n1CCCNC(=O)CCC(=O)OC |
| > 100 | > 100 | CCCn1c(NC(=O)c2cccnn2)nc2cc(C(N)=O)cc(OC)c21 |
| > 100 | > 100 | COc1cc(C(N)=O)cc2nc(NC(=O)c3nccc4ccccc34)n(CCCNC(=O)OCc3ccccc3)c12 |
| > 100 | > 100 | CCn1nc(C)cc1C(=O)Nc1nc2cc(C(N)=O)cc(OC)c2n1CCCNC(=O)c1ccccc1 |
| > 100 | > 100 | COc1cc(C(N)=O)cc2nc(NC(=O)c3cc4ccccc4n3C)n(CCCNC(=O)OCc3ccccc3)c12 |
